Columns and labels:
Renin (Homo sapiens) [1] = molecular target: T1, Renin (Homo sapiens) (UniProt P00797); experiment: Inhibition of human renal renin at the concentration of 10e-5 M.
T1 sequence (whole entry): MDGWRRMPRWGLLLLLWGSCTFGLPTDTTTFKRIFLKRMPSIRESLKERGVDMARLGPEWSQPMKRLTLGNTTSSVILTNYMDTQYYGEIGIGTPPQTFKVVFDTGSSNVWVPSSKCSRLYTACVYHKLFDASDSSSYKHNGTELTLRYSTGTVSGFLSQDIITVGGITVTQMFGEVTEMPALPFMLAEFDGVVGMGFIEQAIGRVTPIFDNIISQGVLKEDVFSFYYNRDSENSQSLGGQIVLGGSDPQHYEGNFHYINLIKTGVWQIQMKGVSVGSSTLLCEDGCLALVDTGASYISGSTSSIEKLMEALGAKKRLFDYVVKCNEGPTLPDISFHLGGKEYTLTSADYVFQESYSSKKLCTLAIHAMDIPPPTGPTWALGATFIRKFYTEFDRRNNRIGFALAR

Renin [2] = molecular target: T2, Renin (Homo sapiens, UniProt P00797); experiment: The compound was tested for inhibition of human renal renin at the pH optimum 7.4
T2 sequence (P00797 whole entry): T1 sequence (whole entry)

Pepsin A (Sus scrofa) = Pepsin A (Sus scrofa) (UniProt P00791); experiment: Inhibition of porcine pepsin; design: concentration or dose not given beside the values; details: concentration not given here
Pepsin A (Sus scrofa), sequence (P00791 60-385 limits assumed): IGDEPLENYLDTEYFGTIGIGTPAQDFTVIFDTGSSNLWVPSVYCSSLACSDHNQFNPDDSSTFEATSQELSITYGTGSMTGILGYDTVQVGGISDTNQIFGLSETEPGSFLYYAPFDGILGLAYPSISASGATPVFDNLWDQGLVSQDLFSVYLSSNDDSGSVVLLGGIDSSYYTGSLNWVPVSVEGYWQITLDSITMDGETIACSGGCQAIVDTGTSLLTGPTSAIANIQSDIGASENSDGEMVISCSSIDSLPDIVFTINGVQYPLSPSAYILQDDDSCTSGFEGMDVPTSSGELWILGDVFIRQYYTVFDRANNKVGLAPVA

Renin [3] = molecular target: T2, Renin; experiment: Inhibition of human renal renin at the pH optimum 6.0.
Renin (Homo sapiens) [4] = molecular target: T1, Renin (Homo sapiens); experiment: The compound was tested for inhibition of human renal renin at the concentration of 10e-6 M
Renin (Homo sapiens) [5] = molecular target: T1, Renin (Homo sapiens); experiment: The compound was tested for inhibition of human renal renin at the concentration of 10e-7 M
Renin (Homo sapiens) [6] = molecular target: T1, Renin (Homo sapiens); experiment: The compound was tested for inhibition of human renal renin at the concentration of 10e-5 M (2:1 mixture of S:R diastereomers at the carbon bearing the hydroxyl group.

SMILES	inhibition (Renin (Homo sapiens) [1]) [%]	IC50 (Renin [3]) [µM]	further results
CC(C)C[C@@H](NC(=O)[C@H](C)NC(=O)[C@H](Cc1ccccc1)NC(=O)OC(C)(C)C)[C@H](O)CSc1ccc(Br)cc1	21	–	–
CC(C)CCS(=O)(=O)C[C@@H](O)[C@@H](CC(C)C)NC(=O)[C@H](Cc1c[nH]cn1)NC(=O)[C@H](Cc1ccccc1)NC(=O)OC(C)(C)C	94	–	IC50 (Renin [2]): 0.5 µM
CC(C)C[C@@H](NC(=O)[C@H](C)NC(=O)[C@H](Cc1ccccc1)NC(=O)OC(C)(C)C)[C@H](O)COc1ccccc1	48	–	inhibition (Pepsin A (Sus scrofa)): 27%
CC(C)C[C@@H](NC(=O)[C@H](C)NC(=O)[C@H](Cc1ccccc1)NC(=O)OC(C)(C)C)[C@H](O)CSCc1cccc2ccccc12	48	–	–
CC(C)C[C@@H](NC(=O)[C@H](C)NC(=O)[C@H](Cc1ccccc1)NC(=O)OC(C)(C)C)[C@H](O)CS(=O)(=O)c1ccccc1	25	–	–
CC(C)C[C@@H](NC(=O)[C@H](Cc1c[nH]cn1)NC(=O)[C@H](Cc1ccccc1)NC(=O)OC(C)(C)C)[C@H](O)CSC(C)C	–	0.081	inhibition (Renin (Homo sapiens) [4]): 92%; inhibition (Renin (Homo sapiens) [5]): 54%
CC(C)C[C@@H](NC(=O)[C@H](C)NC(=O)[C@H](Cc1ccccc1)NC(=O)OC(C)(C)C)[C@H](O)CNC(C)C	5	–	–
CC(C)C[C@@H](NC(=O)[C@H](C)NC(=O)[C@H](Cc1ccccc1)NC(=O)OC(C)(C)C)[C@H](O)COC(C)C	54	7	–
CC(C)C[C@H](NC(=O)[C@H](Cc1c[nH]cn1)NC(=O)[C@H](Cc1ccccc1)NC(=O)OC(C)(C)C)[C@@H](O)CSC1CCCCC1 (stereo in doubt; 55)	–	–	inhibition (Renin (Homo sapiens) [5]): 78%
CC(C)C[C@@H](NC(=O)[C@H](C)NC(=O)[C@H](Cc1ccccc1)NC(=O)OC(C)(C)C)[C@H](O)CCc1ccccc1	–	–	inhibition (Renin (Homo sapiens) [6]): 35%
CC(C)C[C@@H](NC(=O)[C@H](C)NC(=O)[C@H](Cc1ccccc1)NC(=O)OC(C)(C)C)[C@H](O)CSC(C)(C)C	88	3	–
CC(C)C[C@@H](NC(=O)[C@H](C)NC(=O)[C@H](Cc1ccccc1)NC(=O)OC(C)(C)C)[C@H](O)C[S+]([O-])c1ccccc1 (stereo not given in full)	12	–	–
CC(C)C[C@@H](NC(=O)[C@H](C)NC(=O)[C@H](Cc1ccccc1)NC(=O)OC(C)(C)C)[C@H](O)CSc1cccc2ccccc12	7	–	–
CC(C)CC[C@@H](O)[C@@H](CC(C)C)NC(=O)[C@H](Cc1c[nH]cn1)NC(=O)[C@H](Cc1ccc2ccccc2c1)NC(=O)OC(C)(C)C	–	0.6	inhibition (Renin (Homo sapiens) [4]): 87%
CC(C)COC[C@@H](O)[C@@H](CC(C)C)NC(=O)[C@H](C)NC(=O)[C@H](Cc1ccccc1)NC(=O)OC(C)(C)C	59	7	inhibition (Pepsin A (Sus scrofa)): 68%
CC(C)C[C@@H](NC(=O)[C@H](Cc1c[nH]cn1)NC(=O)[C@H](Cc1ccccc1)NC(=O)OC(C)(C)C)[C@H](O)CS(=O)(=O)C(C)C	99	0.2	inhibition (Pepsin A (Sus scrofa)): 3%
CC(C)CSC[C@@H](O)[C@@H](CC(C)C)NC(=O)[C@H](C)NC(=O)[C@H](Cc1ccccc1)NC(=O)OC(C)(C)C	89	1.5	–
CC(C)C[C@@H](NC(=O)[C@H](C)NC(=O)[C@H](Cc1ccccc1)NC(=O)OC(C)(C)C)[C@H](O)CS(=O)(=O)C1CCCCC1	76	2	–
CC(C)CCC[C@@H](O)[C@@H](CC(C)C)NC(=O)[C@H](C)NC(=O)[C@H](Cc1ccccc1)NC(=O)OC(C)(C)C	71	3.5	–
CC(C)COC[C@@H](O)[C@@H](CC(C)C)NC(=O)[C@H](Cc1c[nH]cn1)NC(=O)[C@H](Cc1ccccc1)NC(=O)OC(C)(C)C	94	0.65	inhibition (Pepsin A (Sus scrofa)): 0%
CC(C)CCSC[C@@H](O)[C@@H](CC(C)C)NC(=O)[C@H](C)NC(=O)[C@H](Cc1ccccc1)NC(=O)OC(C)(C)C	93	1.5	–
CC(C)C[C@@H](NC(=O)[C@H](C)NC(=O)[C@H](Cc1ccccc1)NC(=O)OC(C)(C)C)[C@H](O)CSc1ccc2ccccc2c1	23	–	–
CC(C)C[C@@H](NC(=O)[C@H](C)NC(=O)[C@H](Cc1ccccc1)NC(=O)OC(C)(C)C)[C@H](O)CSCc1ccccc1	57	10	inhibition (Pepsin A (Sus scrofa)): 96%
CC(C)C[C@@H](NC(=O)[C@H](Cc1c[nH]cn1)NC(=O)[C@H](Cc1ccccc1)NC(=O)OC(C)(C)C)[C@H](O)CS(=O)(=O)C1CCCCC1	–	0.09	inhibition (Renin (Homo sapiens) [4]): 92%; inhibition (Renin (Homo sapiens) [5]): 51%

Reference: ChEMBL document CHEMBL1123909, “New inhibitors of human renin that contain novel Leu-Val replacements” (J Med Chem, 1987)
